Organism: Rattus norvegicus
Assay: Open TG-GATES - Regimen: Daily Repeat
Assay type: toxicity, organism-based, Sprague-Dawley
Parameters: regimen Daily Repeat, gender Male, age 6 weeks
Conditions: in vivo, po, 0 mg/kg, […], route gavage, dose level Control; for KIDNEY_L / KIDNEY_R / KIDNEY_TOTAL: tissue Kidney; for LIVER: tissue Liver; for A/G / ALP / ALT / AST / BUN / CRE / Ca / Cl / DBIL / GLC / IP / K / LDH / Na / PL / RALB / TBIL / TC / TG / TP / gamma-GTP: tissue Plasma

COc1ccc(O)c(C(C)(C)C)c1.COc1ccc(O)cc1C(C)(C)C [BUTYLATED HYDROXYANISOLE]
Lym (tissue Blood, time 28 day): 78.1%
MCH (tissue Blood, time 28 day): 19.5 pg
MCHC (tissue Blood, time 28 day): 35.9%
MCV (tissue Blood, time 28 day): 54.4 fL
Mono (tissue Blood, time 28 day): 1.8%
Neu (tissue Blood, time 28 day): 18.2%
PT (tissue Blood, time 28 day): 12.3 s
Plat (tissue Blood, time 28 day): 121 x10_4/uL
RBC (tissue Blood, time 28 day): 769 x10_4/ul
Ret (tissue Blood, time 28 day): 2.3%
WBC (tissue Blood, time 28 day): 105.1 x10_2/uL
KIDNEY_L (time 7 day): 1 g
KIDNEY_R (time 7 day): 1 g
KIDNEY_TOTAL (time 7 day): 2 g
KIDNEY_L (time 14 day): 1.2 g
KIDNEY_R (time 14 day): 1.2 g
KIDNEY_TOTAL (time 14 day): 2.3 g
KIDNEY_L (time 28 day): 1.3 g
KIDNEY_R (time 28 day): 1.3 g
KIDNEY_TOTAL (time 28 day): 2.6 g
LIVER (time 7 day): 11.4 g
LIVER (time 14 day): 14.3 g
LIVER (time 28 day): 16.7 g
A/G (time 7 day): 0.8
ALP (time 7 day): 1903.8 IU/L
ALT (time 7 day): 44.4 IU/L
AST (time 7 day): 67 IU/L
BUN (time 7 day): 16 mg/dL
CRE (time 7 day): 0.2 mg/dL
Ca (time 7 day): 11 mg/dL
Cl (time 7 day): 104.8 meq/L
DBIL (time 7 day): 0.02 mg/dL
GLC (time 7 day): 180.2 mg/dL
IP (time 7 day): 7 mg/dL
K (time 7 day): 4.1 meq/L
LDH (time 7 day): 58.2 IU/L
Na (time 7 day): 142 meq/L
PL (time 7 day): 135.4 mg/dL
RALB (time 7 day): 2.6 g/dL
TBIL (time 7 day): 0.048 mg/dL
TC (time 7 day): 70.6 mg/dL
TG (time 7 day): 95.2 mg/dL
TP (time 7 day): 5.9 g/dL
gamma-GTP (time 7 day): 1 IU/L
A/G (time 14 day): 0.8
ALP (time 14 day): 1384.2 IU/L
ALT (time 14 day): 32 IU/L
AST (time 14 day): 57.6 IU/L
BUN (time 14 day): 14.4 mg/dL
CRE (time 14 day): 0.2 mg/dL
Ca (time 14 day): 10.7 mg/dL
Cl (time 14 day): 105.8 meq/L
DBIL (time 14 day): 0.018 mg/dL
GLC (time 14 day): 181.4 mg/dL
IP (time 14 day): 6.6 mg/dL
K (time 14 day): 3.7 meq/L
LDH (time 14 day): 52 IU/L
Na (time 14 day): 143 meq/L
PL (time 14 day): 137 mg/dL
RALB (time 14 day): 2.7 g/dL
TBIL (time 14 day): 0.048 mg/dL
TC (time 14 day): 72.8 mg/dL
TG (time 14 day): 133.8 mg/dL
TP (time 14 day): 6 g/dL
gamma-GTP (time 14 day): 1 IU/L
A/G (time 28 day): 0.7
ALP (time 28 day): 1254.6 IU/L
ALT (time 28 day): 32.6 IU/L
AST (time 28 day): 57.6 IU/L
BUN (time 28 day): 17.8 mg/dL
CRE (time 28 day): 0.3 mg/dL
Ca (time 28 day): 10.8 mg/dL
Cl (time 28 day): 104.8 meq/L
DBIL (time 28 day): 0.02 mg/dL
GLC (time 28 day): 191 mg/dL
IP (time 28 day): 5.4 mg/dL
K (time 28 day): 4 meq/L
LDH (time 28 day): 62.2 IU/L
Na (time 28 day): 143.2 meq/L
PL (time 28 day): 134.6 mg/dL
RALB (time 28 day): 2.6 g/dL
TBIL (time 28 day): 0.054 mg/dL
TC (time 28 day): 68.6 mg/dL
TG (time 28 day): 179.6 mg/dL
TP (time 28 day): 6.2 g/dL
gamma-GTP (time 28 day): 1 IU/L

From ChEMBL document CHEMBL3885861, “Open TG-GATES”
